Measurements taken from PMC11252453 (Acta Pharmaceutica Sinica. B, 2024).

Key:
Vero E6 cells = conditions: African green monkey
[1] = system: SARS-CoV-2 PLpro mediated IFNB expression; type: cell-based
SARS-CoV-2 PLpro = SARS-CoV-2 PLpro (Severe acute respiratory syndrome coronavirus 2, UniProt P0DTD1); assay: cell-based

Compound | CC50 (Vero E6 cells) [µM] | IFNB mRNA expression [1] | EC50 (SARS-CoV-2 PLpro) [µM]
CCC(C(=O)Nc1cc(NC2CCNCC2)ccc1C)n1cc(Cl)cc2nc(SCc3ccc(F)cc3)nc1-2 (stereo not shown) [Compound 39] | > 50 | fully restore IFNB expression | –
CCC(C(=O)Nc1cc(NC2CCNCC2)ccc1C)n1cc(Br)cc2nc(SCc3ccc(F)cc3)nc1-2 (stereo not shown) [Compound 44] | – | – | 3.81 ± 0.59
CCC(C(=O)Nc1cc(NC2COC2)ccc1C)n1cc(Br)cc2nc(SCc3ccc(F)cc3)nc1-2 (stereo not shown) [Compound 45] | – | fully restore IFNB expression | –
